The values below come from patent US7919076B2, “PH-sensitive polymeric conjugates of an anthracycline cancerostatic drug for targeted therapy” (Zentiva, k.s., priority 2001, dated 2011).

SMILES strings stand for the structures.

For this test, the system named is T-cellular lymphoma (EL4). Briefly: in vivo anti-tumor activity, s.c. T-cellular lymphoma EL4 in C57BL/10 mice. More on the design: species or system mouse. As for the experimental part:
Mice of inbred strain C57BL/10 were subcutaneously transplanted with T-cellular lymphoma (EL4). The tumor cells were injected in the lower half of the back of experimental animals in the amount of 1×10^5 cells/mouse. The cell transplantation day was marked day 0. Polymeric conjugates with hydrolytically released doxorubicin were then administered intraperitoneally either on day 1, 3, 5, 7 and 9 (protective regimen), on day 10, 12, 14, 16 and 18 or on day 12, 14, 16, 18 and 20 (therapeutic regimen). The daily dose of doxorubicin was 50 μg/mouse.

As to `COc1cccc2c1C(=O)c1c(O)c3c(c(O)c1C2=O)C[C@@](O)(C(=O)CO)C[C@@H]3O[C@H]1C[C@H](N)[C@H](O)[C@H](C)O1` [doxorubicin], the “anti-tumor effect (tumor growth, survival)” value (EL4, i.p., doxorubicin 50 μg/mouse daily dose) is “very limited effect”. Besides, the “maximum survival period of the experimental animals” value (EL4, control group 35 days) is reported as 40 days.
